Measurements published in patent US11479617B2, “Chelator-functionalized glycosaminoglycans” (priority 2018, dated 2022).

Molecule | maximal inhibitory concentration (RAW 264.7 macrophages) [µg/mL] | maximal inhibitory concentration (NIH-3T3 fibroblasts) [µg/mL] | cytocompatibility (cell enumeration, metabolism, toxicity) (RAW 264.7 macrophages) | cytocompatibility (cell enumeration, metabolism, toxicity) (NIH-3T3 fibroblasts)
O.O.O.O.O.O.[Cl-].[Cl-].[Co+2] [CoCl2.6H2O] | ~50 | ~25 |  | 
hyaluronic acid [HA] |  |  | cytocompatible | cytocompatible
